{"source": "patent US20110046482A1", "about": "“METHODS FOR REDUCING TOXICITIES ASSOCIATED WITH MEDICAL PROCEDURES EMPLOYING RADIOGRAPHIC CONTRAST AGENTS” (OREGON HEALTH & SCIENCE UNIVERSITY, priority 2006, published 2011)", "key": {"[1]": {"system": "cumulative cisplatin nephrotoxicity", "test": "Multiple low dose cisplatin nephrotoxicity model", "assay_type": "in vivo", "details": "rats"}, "[2]": {"system": "cisplatin-induced nephrotoxicity", "test": "Cisplatin (10 mg/kg IP) nephrotoxicity model, BUN, creatinine and weight 3 days after treatment", "assay_type": "in vivo", "details": "rats", "procedure": "There are few animal models of contrast-induced nephropathy, and the reported models are not easily reproducible.\nRats were tested for renal toxicity 3 days after treatment by measuring serum concentrations of BUN and creatinine (CR)."}, "[3]": {"test": "Effect of route of administration on biodistribution of radiolabelled NAC", "assay_type": "in vivo", "details": "rats", "procedure": "Radiolabelled NAC in combination with unlabeled NAC (140 mg/kg) was administered to rats with the following routes of infusion: IV; IA into the right carotid artery for brain infusion; aortic infusion (IA infusion via the left external carotid artery with left internal artery occlusion) to avoid brain infusion; and IA (right carotid) with osmotic Blood Brain Barrier Disruption (BBBD) to maximize delivery to the brain."}, "[4]": {"test": "N-acetylcysteine dose escalation, IV at time 0, 4 and 8 hours, followed for two weeks", "procedure": "Rats were given NAC IV at time 0, 4 hours, and 8 hours and were then followed for two weeks."}, "cisplatin nephrotoxicity": {"system": "cisplatin nephrotoxicity", "test": "Cisplatin nephrotoxicity after NAC IV, PO or IA in the descending aorta", "assay_type": "in vivo", "details": "rats", "procedure": "IV NAC was nephroprotective at a dose of 400 mg/kg but not at a lower dose of 50 mg/kg."}, "[5]": {"system": "cellular apoptosis proteins", "test": "NAC-mediated inhibition of cisplatin-induced apoptosis, Western Blot analysis", "assay_type": "cell-based", "procedure": "Thus, the ability of NAC to modulate cellular apoptosis proteins was evaluated by Western Blot analysis."}, "[6]": {"test": "Blood/serum levels of NAC and thiols by HPLC after IV or PO NAC", "assay_type": "in vivo", "procedure": "NAC is known to enhance de novo glutathione synthesis, and may also impact levels of other thiols. […] In contrast to the IV results, the group given NAC 1200 mg/kg by the PO route had very low levels of serum NAC (0.12±0.12) at 15 min or 60 min after infusion."}, "[7]": {"test": "Clearance of NAC, blood thiol concentration every 15 minutes by colorimetric kit", "assay_type": "in vivo", "details": "rat, intravenous, other: IA into the descending aorta, IV or IA into the descending aorta, 140, 400, 1000 and 1200 mg/kg, all doses", "procedure": "NAC was administered either IV or IA into the descending aorta, and blood samples were assessed for thiol concentration every 15 minutes using a colorimetric kit. The NAC doses tested were 140, 400, 1000, and 1200 mg/kg."}, "[8]": {"details": "cisplatin 10 mg/kg IP + NAC 400 mg/kg IP"}, "[9]": {"details": "cisplatin 10 mg/kg IP + NAC 400 mg/kg PO"}}}
{"smiles": "CC(=O)N[C@@H](CS)C(=O)O", "note": "[NAC, N-acetylcysteine]", "values": [{"measurement": "protection against nephrotoxicity", "setting": "[1]; NAC 800 mg/kg IP 30 minutes before each cisplatin treatment", "value": "no protective effect"}, {"measurement": "protection against nephrotoxicity", "setting": "[1]; NAC 800 mg/kg IV 30 minutes before each cisplatin treatment", "value": "protective against the cumulative nephrotoxicity"}, {"measurement": "BUN", "setting": "[2]; [8]", "value": "131.8 ± 8.2", "unit": "mg/dL"}, {"measurement": "CR (creatinine)", "setting": "[2]; [8]", "value": "2.3±0.38"}, {"measurement": "BUN", "setting": "[2]; cisplatin 10 mg/kg IP + NAC 400 mg/kg IV, p<0.0001", "value": "26.33 ± 6.76", "unit": "mg/dL"}, {"measurement": "CR (creatinine)", "setting": "[2]; cisplatin 10 mg/kg IP + NAC 400 mg/kg IV, p<0.0013", "value": "0.47±0.15"}, {"measurement": "BUN", "setting": "[2]; [9]", "value": "123.3 ± 8.2", "unit": "mg/dL"}, {"measurement": "CR (creatinine)", "setting": "[2]; [9]", "value": "1.77±0.21"}, {"measurement": "percent weight loss over the test period versus the other groups", "setting": "[2]; cisplatin + IV NAC, p<0.0001", "value": "significantly lower percent weight loss"}, {"measurement": "radiolabel in brain", "setting": "[3]; NAC 140 mg/kg, IA right carotid artery", "value": "high levels of radiolabel in the right cerebral hemisphere"}, {"measurement": "radiolabel in right cerebral hemisphere relative to IA without BBBD", "setting": "[3]; NAC 140 mg/kg, IA right carotid with osmotic BBBD", "value": "doubled"}, {"measurement": "brain delivery of NAC", "setting": "[3]; NAC 140 mg/kg, aortic infusion", "value": "negligible levels"}, {"measurement": "delivery to kidney", "setting": "[3]; NAC 140 mg/kg, aortic infusion", "value": "increased systemic delivery to kidney"}, {"measurement": "amount of NAC found in the brain", "setting": "[3]; radiolabelled + unlabeled NAC 140 mg/kg, IV", "value": "negligible amounts"}, {"measurement": "safety/tolerability", "setting": "[4]; rat, in vivo, iv, 1200 mg/kg", "value": "safe and well-tolerated"}, {"measurement": "weight loss and signs of toxicity", "setting": "[4]; rat, in vivo, iv, 1200 mg/kg", "value": "no weight loss and no signs of toxicity"}, {"measurement": "tolerability of infusions", "setting": "[4]; rat, in vivo, iv, 1500 mg/kg", "value": "tolerated the infusions well"}, {"measurement": "loss of body weight", "setting": "[4]; rats, NAC IV 1500 mg/kg×3 (0, 4, 8 hours), within 2-3 days of infusion", "value": "5%-10%"}, {"measurement": "nephroprotection", "setting": "cisplatin nephrotoxicity; NAC 50 mg/kg IA in the descending aorta", "value": "significant nephroprotection"}, {"measurement": "nephroprotection", "setting": "cisplatin nephrotoxicity; NAC 50 mg/kg IV", "value": "not nephroprotective"}, {"measurement": "nephroprotection", "setting": "cisplatin nephrotoxicity; NAC 400 mg/kg IV", "value": "nephroprotective"}, {"measurement": "protection against cisplatin nephrotoxicity", "setting": "cisplatin nephrotoxicity; NAC 400 mg/kg PO via nasogastric tube, cisplatin 10 mg/m^2", "value": "not protective"}, {"measurement": "time to renal failure", "setting": "cisplatin nephrotoxicity; NAC 400 mg/kg PO, cisplatin 10 mg/m^2", "value": "≤ 3", "unit": "days"}, {"measurement": "protection against cisplatin cytotoxicity", "setting": "[5]; NAC 8 hours after cisplatin", "value": "minimal"}, {"measurement": "effect on cytotoxic effects of cisplatin (apoptosis proteins)", "setting": "[5]; NAC added concurrent with cisplatin or up to 2 hours after", "value": "reversed the cytotoxic effects of cisplatin"}, {"measurement": "protection against cisplatin cytotoxicity", "setting": "[5]; NAC delayed more than 2 hours", "value": "protection was reduced"}, {"measurement": "blood level of NAC (mean)", "setting": "[6]; IV 100 mg/kg", "value": "380 ± 160", "unit": "µM"}, {"measurement": "blood level of NAC (mean)", "setting": "[6]; IV 400 mg/kg", "value": "2190 ± 190", "unit": "µM"}, {"measurement": "blood level of NAC (mean)", "setting": "[6]; IV 1200 mg/kg", "value": "6220 ± 180", "unit": "µM"}, {"measurement": "serum concentration of metabolite oxidized NAC relative to NAC alone", "setting": "[6]; IV, 15 min after administration", "value": "approximately double"}, {"measurement": "serum NAC level", "setting": "[6]; PO 1200 mg/kg, at 15 min or 60 min after infusion", "value": "0.12 ± 0.12", "unit": "mM"}, {"measurement": "half-life", "setting": "[7]", "value": "< 15", "unit": "min"}]}
